This experiment concerns the target SARS-CoV-2 3CL-protease (Severe acute respiratory syndrome coronavirus 2, UniProt P0DTD1). Nature of the experiment: SARS-CoV-2 3C-like (3CL) protease fluorescence assay (FRET). The format is biochemical.
The mark [1] stands for this setting: recombinant SARS-CoV-2 3CL-protease 10 nM, 30 min preincubation at RT, duplicate, read-out: FRET IC50.

Like-named read-outs stand apart in the source and are kept apart here. Bounds are passed on as bounds.

As usually defined, the IC50 is the concentration that inhibits the measured activity by half. For the compound `N#C[C@@H]1C[C@@]2(CN1C(=O)c1cc3ccccc3[nH]1)C(=O)Nc1ccccc12` [Example 54], the IC50 under setting [1] is greater than 1 µM.

`N#C[C@@H]1C[C@@]2(CN1S(=O)(=O)c1ccccc1)C(=O)Nc1ccccc12` [Example 55]: the IC50 under setting [1] was greater than 1 µM.

Take `N#C[C@@H]1C[C@@]2(CN1S(=O)(=O)c1ccc(F)cc1)C(=O)Nc1ccccc12` [Example 56]: the IC50 under setting [1] was greater than 1 µM.

Regarding `CC(C)NS(=O)(=O)N1C[C@]2(C[C@H]1C#N)C(=O)Nc1ccccc12` [Example 57], under setting [1], the IC50 was greater than 1 µM.

For `N#C[C@@H]1C[C@@]2(CN1S(=O)(=O)NC1CC1)C(=O)Nc1ccccc12` [Example 58], the IC50 under setting [1] was greater than 1 µM.

On to `N#C[C@@H]1C[C@@]2(CN1S(=O)(=O)NC1CCC1)C(=O)Nc1ccccc12` [Example 59], for which, under setting [1], the IC50 was greater than 1 µM.

Take `N#C[C@@H]1C[C@@]2(CN1S(=O)(=O)NC1CCCC1)C(=O)Nc1ccccc12` [Example 60]: the IC50 under setting [1] is greater than 1 µM.

For the compound `N#C[C@@H]1C[C@@]2(CN1S(=O)(=O)NC1CCCCC1)C(=O)Nc1ccccc12` [Example 61], the IC50 under setting [1] is greater than 1 µM.

Regarding `N#C[C@@H]1C[C@@]2(CN1S(=O)(=O)Nc1ccc(F)cc1)C(=O)Nc1ccccc12` [Example 62], the IC50 under setting [1] was greater than 1 µM.

Turning to `N#C[C@@H]1C[C@@]2(CN1S(=O)(=O)NCc1nccs1)C(=O)Nc1ccccc12` [Example 63], under setting [1], the IC50 was greater than 1 µM.

As to `CC(C)CN1C[C@]2(C[C@H]1C#N)C(=O)Nc1ccccc12` [Example 64], the IC50 under setting [1] was greater than 1 µM.

Take `CC(C)CN1C[C@]2(C[C@@H]1C#N)C(=O)Nc1ccccc12` [Example 65]: the IC50 under setting [1] is greater than 1 µM.

For `N#C[C@@H]1C[C@@]2(CN1CC1CC1)C(=O)Nc1ccccc12` [Example 66], the IC50 under setting [1] is greater than 1 µM.

As for `CCOC(=O)N1C[C@]2(C[C@H]1C#N)C(=O)Nc1ccccc12` [Example 67], the IC50 was greater than 1 µM.

Consider `CC(C)OC(=O)N1C[C@]2(C[C@H]1C#N)C(=O)Nc1ccccc12` [Example 68], for which, under setting [1], the IC50 is greater than 1 µM.

Consider `N#C[C@@H]1C[C@@]2(CN1C(=O)OC1CC1)C(=O)Nc1ccccc12` [Example 69], for which the IC50 under setting [1] was greater than 1 µM.

As for `N#C[C@@H]1C[C@@]2(CN1C(=O)OC1CCCC1)C(=O)Nc1ccccc12` [Example 70], under setting [1], the 50% inhibitory concentration (IC50) is greater than 1 µM.

Take `N#C[C@@H]1C[C@@]2(CN1C(=O)Oc1ccccc1)C(=O)Nc1ccccc12` [Example 71]: the IC50 was greater than 1 µM.

On to `N#C[C@@H]1C[C@@]2(CN1C(=O)OCc1ccccc1)C(=O)Nc1ccccc12` [Example 72], for which the IC50 under setting [1] fell in the range of 0.1 to 1 µM.

With `N#C[C@@H]1C[C@@]2(CN1C(=O)C(=O)Nc1ccccc1)C(=O)Nc1ccccc12` [Example 73], the IC50 under setting [1] was greater than 1 µM.

As for `CC(C)(C(=O)NC1CCCCC1)C(=O)N1C[C@]2(C[C@H]1C#N)C(=O)Nc1ccccc12` [Example 74], the IC50 under setting [1] was greater than 1 µM.

In the case of `N#C[C@@H]1C[C@@]2(CN1C(=O)C1(C(=O)Nc3ccccc3)CC1)C(=O)Nc1ccccc12` [Example 75], under setting [1], the IC50 is greater than 1 µM.

Regarding `N#C[C@@H]1C[C@@]2(CN1S(=O)(=O)Nc1ccc3cccnc3c1)C(=O)Nc1ccccc12` [Example 76], the IC50 under setting [1] is greater than 1 µM.

As to `N#C[C@@H]1C[C@@]2(CN1C(=O)OC1CCCCC1)C(=O)Nc1ccccc12` [Example 77], the IC50 under setting [1] was greater than 1 µM.

As for `N#C[C@@H]1C[C@@]2(CN1C(=O)C(=O)NC1CC1)C(=O)Nc1ccccc12` [Example 78], the IC50 under setting [1] was greater than 1 µM.

Consider `N#C[C@@H]1C[C@@]2(CN1C(=O)C(=O)NC1CCCCC1)C(=O)Nc1ccccc12` [Example 79], for which the IC50 under setting [1] was in the range of 0.1 to 1 µM.

Take `N#C[C@@H]1C[C@@]2(CN1C(=O)C(=O)NCc1ccccc1)C(=O)Nc1ccccc12` [Example 80]: the IC50 under setting [1] fell in the range of 0.1 to 1 µM.

For the compound `N#C[C@@H]1C[C@@]2(CN1C(=O)C(=O)NCc1nccs1)C(=O)Nc1ccccc12` [Example 81], under setting [1], the IC50 was greater than 1 µM.

Regarding `CC(C)NC(=O)C(C)(C)C(=O)N1C[C@]2(C[C@H]1C#N)C(=O)Nc1ccccc12` [Example 82], under setting [1], the IC50 is greater than 1 µM.

In the case of `CC(C)(C(=O)NC1CC1)C(=O)N1C[C@]2(C[C@H]1C#N)C(=O)Nc1ccccc12` [Example 83], the IC50 under setting [1] is greater than 1 µM.

`CC(C)(C(=O)Nc1ccccc1)C(=O)N1C[C@]2(C[C@H]1C#N)C(=O)Nc1ccccc12` [Example 84]: the IC50 under setting [1] is greater than 1 µM.

As to `N#C[C@@H]1C[C@@]2(CN1S(=O)(=O)Nc1ccccc1)C(=O)Nc1ccccc12` [Example 85], the IC50 under setting [1] was greater than 1 µM.

With `N#C[C@@H]1C[C@@]2(CN1C(=O)OCc1nccs1)C(=O)Nc1ccccc12` [Example 86], the IC50 under setting [1] is greater than 1 µM.

As to `N#C[C@@H]1C[C@@]2(CN1C(=O)OCn1cccn1)C(=O)Nc1ccccc12` [Example 87], the IC50 under setting [1] is greater than 1 µM.

As to `CCNC(=O)C(=O)N1C[C@]2(C[C@H]1C#N)C(=O)Nc1ccccc12` [Example 88], the IC50 under setting [1] is greater than 1 µM.

`CC(C)NC(=O)C(=O)N1C[C@]2(C[C@H]1C#N)C(=O)Nc1ccccc12` [Example 89]: the IC50 under setting [1] is greater than 1 µM.

Take `N#C[C@@H]1C[C@@]2(CN1C(=O)C(=O)NC1CCCC1)C(=O)Nc1ccccc12` [Example 90]: the IC50 under setting [1] lay within 0.1 to 1 µM.

With `N#C[C@@H]1C[C@@]2(CN1C(=O)C(=O)Nc1ccc3cccnc3c1)C(=O)Nc1ccccc12` [Example 91], under setting [1], the IC50 is greater than 1 µM.

With `N#C[C@@H]1C[C@@]2(CN1C(=O)C(Cc1ccccc1)C(=O)C1CC1)C(=O)Nc1ccccc12` (some centres unmarked) [Example 92], the IC50 under setting [1] was in the range of 0.1 to 1 µM.

`N#C[C@@H]1C[C@@]2(CN1C(=O)C(Cc1ccccc1)C(=O)C1CCCCC1)C(=O)Nc1ccccc12` (some centres unmarked) [Example 93]: under setting [1], the IC50 was greater than 1 µM.

In the case of `N#C[C@@H]1C[C@@]2(CN1C(=O)[C@H](Cc1ccccc1)C(=O)c1ccccc1)C(=O)Nc1ccccc12` [Example 94], the IC50 under setting [1] is greater than 1 µM.

Regarding `N#C[C@@H]1C[C@@]2(CN1C(=O)[C@@H](Cc1ccccc1)C(=O)c1ccccc1)C(=O)Nc1ccccc12` [Example 95], under setting [1], the IC50 was greater than 1 µM.

For the compound `CC(C)(C(=O)C1CC1)C(=O)N1C[C@]2(C[C@H]1C#N)C(=O)Nc1ccccc12` [Example 100], the IC50 under setting [1] is greater than 1 µM.

Take `CC(C)(C(=O)C1CCCCC1)C(=O)N1C[C@]2(C[C@H]1C#N)C(=O)Nc1ccccc12` [Example 101]: the IC50 under setting [1] was greater than 1 µM.

Regarding `N#C[C@@H]1C[C@@]2(CN1C(=O)C1(C(=O)c3ccccc3)CC1)C(=O)Nc1ccccc12` [Example 102], under setting [1], the IC50 is greater than 1 µM.

As to `CC(C)(C(=O)c1ccccc1)C(=O)N1C[C@]2(C[C@H]1C#N)C(=O)Nc1ccccc12` [Example 111], the IC50 under setting [1] was greater than 1 µM.

Turning to `N#C[C@@H]1C[C@@]2(CN1C(=O)C(=O)OC1CCCC1)C(=O)Nc1ccccc12` [Example 112], the IC50 under setting [1] is greater than 1 µM.

For `N#C[C@@H]1C[C@@]2(CN1C(=O)C(=O)OC1CCCCC1)C(=O)Nc1ccccc12` [Example 113], the IC50 under setting [1] lay within 0.1 to 1 µM.

For `CC(C)NC(=O)[C@@H](Cc1ccccc1)C(=O)N1C[C@]2(C[C@H]1C#N)C(=O)Nc1ccccc12` [Example 114], under setting [1], the IC50 is 0.1 to 1 µM.

In the case of `CC(C)NC(=O)[C@H](Cc1ccccc1)C(=O)N1C[C@]2(C[C@H]1C#N)C(=O)Nc1ccccc12` [Example 115], the IC50 under setting [1] was greater than 1 µM.

In the case of `N#C[C@@H]1C[C@@]2(CN1C(=O)[C@H](Cc1ccccc1)C(=O)NC1CC1)C(=O)Nc1ccccc12` [Example 116], under setting [1], the IC50 is 0.1 to 1 µM.

On to `N#C[C@@H]1C[C@@]2(CN1C(=O)[C@@H](Cc1ccccc1)C(=O)NC1CC1)C(=O)Nc1ccccc12` [Example 117], for which the half-maximal inhibitory concentration (IC50) under setting [1] was greater than 1 µM.

Take `N#C[C@@H]1C[C@@]2(CN1C(=O)[C@H](Cc1ccccc1)C(=O)NC1CCCCC1)C(=O)Nc1ccccc12` [Example 118]: under setting [1], the IC50 lay within 0.1 to 1 µM.

For `N#C[C@@H]1C[C@@]2(CN1C(=O)[C@@H](Cc1ccccc1)C(=O)NC1CCCCC1)C(=O)Nc1ccccc12` [Example 119], the IC50 under setting [1] is greater than 1 µM.

In the case of `N#C[C@@H]1C[C@@]2(CN1C(=O)[C@H](Cc1ccccc1)C(=O)Nc1ccccc1)C(=O)Nc1ccccc12` [Example 120], the IC50 under setting [1] fell in the range of 0.1 to 1 µM.

As to `N#C[C@@H]1C[C@@]2(CN1C(=O)[C@@H](Cc1ccccc1)C(=O)Nc1ccccc1)C(=O)Nc1ccccc12` [Example 121], the IC50 under setting [1] is greater than 1 µM.

As for `CC(C)S(=O)(=O)N1C[C@]2(C[C@H]1C#N)C(=O)Nc1ccccc12` [Example 122], the IC50 under setting [1] is greater than 1 µM.

Consider `CCOC(=O)C(=O)N1C[C@]2(C[C@H]1C#N)C(=O)Nc1ccccc12` [Example 123], for which, under setting [1], the IC50 was greater than 1 µM.

As for `CC(C)OC(=O)C(=O)N1C[C@]2(C[C@H]1C#N)C(=O)Nc1ccccc12` [Example 124], under setting [1], the IC50 is greater than 1 µM.

For `N#C[C@@H]1C[C@@]2(CN1C(=O)C(=O)OC1CC1)C(=O)Nc1ccccc12` [Example 125], the IC50 under setting [1] is greater than 1 µM.

On to `N#C[C@@H]1C[C@@]2(CN1C(=O)C(=O)OCc1ccccc1)C(=O)Nc1ccccc12` [Example 126], for which the IC50 under setting [1] was greater than 1 µM.

Consider `N#C[C@@H]1C[C@@]2(CN1C(=O)C(=O)OCc1nccs1)C(=O)Nc1ccccc12` [Example 127], for which the IC50 under setting [1] was greater than 1 µM.

Take `N#C[C@@H]1C[C@@]2(CN1S(=O)(=O)C1CCCC1)C(=O)Nc1ccccc12` [Example 128]: under setting [1], the IC50 was greater than 1 µM.

`N#C[C@@H]1C[C@@]2(CN1S(=O)(=O)C1CCCCC1)C(=O)Nc1ccccc12` [Example 129]: the IC50 under setting [1] is greater than 1 µM.

For `N#C[C@@H]1C[C@@]2(CN1C(=O)NCc1cc3ccccc3[nH]1)C(=O)Nc1ccccc12` [Example 130], the 50% inhibitory concentration (IC50) under setting [1] is greater than 1 µM.

Take `N#C[C@@H]1C[C@@]2(CN1C(=O)NCCc1cc3ccccc3[nH]1)C(=O)Nc1ccccc12` [Example 131]: the IC50 under setting [1] is greater than 1 µM.

Turning to `CC(C)C(=O)NN1C[C@]2(C[C@H]1C#N)C(=O)Nc1ccccc12` [Example 139], under setting [1], the IC50 is greater than 1 µM.

With `N#C[C@@H]1C[C@@]2(CN1NC(=O)C1CC1)C(=O)Nc1ccccc12` [Example 140], under setting [1], the IC50 was greater than 1 µM.

As to `N#C[C@@H]1C[C@@]2(CN1NC(=O)C1CCCCC1)C(=O)Nc1ccccc12` [Example 141], the IC50 under setting [1] is greater than 1 µM.

On to `N#C[C@@H]1C[C@@]2(CN1NC(=O)c1ccccc1)C(=O)Nc1ccccc12` [Example 142], for which the IC50 under setting [1] was greater than 1 µM.

As to `CC1(C)CCC(NC(=O)C(=O)N2C[C@]3(C[C@H]2C#N)C(=O)Nc2ccccc23)CC1` [Example 143], under setting [1], the IC50 is greater than 1 µM.

The values are drawn from patent publication US20230159546A1, “NOVEL SPIROPYRROLIDINE DERIVED ANTIVIRAL AGENTS” (Enanta Pharmaceuticals, Inc., priority 2021, published 2023).
